Experimental data taken from patent US20100086931A1, “METHOD FOR ASSAYING ACTION OF ANTITUMOR AGENT USING DECREASE IN GENE EXPRESSION LEVEL AS INDEX” (Eisai R&D Management Co., Ltd., priority 2007, published 2010).

Test system: peripheral blood mononuclear cells (PBMC)
Assay: Microarray analysis (Human Genome U133 plus 2.0 array) of mRNA expression in PBMC treated with compound A
Format: cell-based
Conditions: 100 nM, ratio to control
From the text: Since it is not easy to obtain a cancer tissue clinically, the measurement of the marker in hemocytes readily obtainable in peripheral blood would be more useful. Specifically blood was taken from a normal individual (volunteer) and peripheral blood mononuclear cells were purified and treated with compound A, followed by measurement of change in expression of the gene (mRNA) with the microarray (Human Genome […] plus 2.0 array: Affymetrix).
Ficoll-Paque PLUS solution (Amersham, 17-1440-02) was slowly added to the blood taken (with heparin added) from a healthy individual to form a layer underneath the blood (15 ml of Ficoll-Paque PLUS solution was added to 25 ml of blood). After the mixture was centrifuged at 1500 rpm for 30 min, the upper part containing platelets was removed and then a layer containing mononuclear cells was transferred to another tube. The cells were suspended in PBS and centrifuged at 1500 rpm for 5 min, followed by removal of the supernatant. After these steps were repeated twice, the cells were again suspended in RPMI1640 (containing 10% FBS). The number of the cells was then counted.
The cells were suspended in the medium to 5×10^6 cells/ml and plated 1 ml per well of a 24-well plate. Immediately, 111 μl of compound A (ten times more concentrated than the final concentrations) was added to the well (four wells per each concentration tested). The cells were then cultured in an incubator with 5% carbon dioxide gas at 37° C. Two or four hours later, the supernatant was collected and centrifuged at 1500 rpm for five minutes. TRI reagent (SIGMA) (1 ml) was added to each well of the plate from which the supernatant was removed to harvest the cells, which was added to the centrifuged pellet to dissolve. RNA was purified in accordance with the protocol of TRI reagent. RNA was further purified using RNeasy (QIAGEN). Absorbance at 260 nm was measured to quantify an amount of RNA.
A .cel file for each sample was obtained by using GeneChip Operating Software Ver.1.2 (Affymetrix). The RMA method was applied to ten of the .cel files obtained in the microarray experiment. Log signal intensity at a gene level was obtained by normalization of that at a probe level. By subtracting a control value from log signal intensity for each case, the log signal intensity was converted into a log signal ratio to the control. Genes were narrowed down in the basis of a log signal ratio, and a signal value. Specifically, among genes showing that the P value was 5% or less; the expression level in the untreated (control) is 100 or more by signal value; and the expression level when treated with 10 nM of compound A both for two and four hours decreased by 50% or more, genes of which expression level decreased to 25% or less upon the two-hour treatment were picked out. The software used is R2.2.1 (http://www.r-project.org/), affy package 1.8.1 (http://www.bioconductor.org).
Among genes showing, upon the treatment with compound A, that the P value was 5% or less; the expression level in the untreated (control) is 100 or more by signal value; and the expression level when treated with 10 nM of compound A both for two and four hours decreased by 50% or more, genes of which expression level decreased to 25% or less upon the two-hour treatment, and results thereof were shown in Table 2. For each gene evaluated, gene name (Gene Name), abbreviated name (Gene Symbol), accession number (Accession), alias name (Synonym), Probe set number in Human Genome U133 Plus 2.0 Array (Human Genome U133 Plus 2.0 Array Probeset ID), the expression level upon the two-hour treatment with E7107 (E7107 (2 h)), and the expression level upon the four-hour treatment with E7107 (E7107 (4 h)) were respectively shown in Table 2.

## CCC(O)C(C)C1OC1CC(C)(O)/C=C/C=C(\C)C1OC(=O)CC(O)CCC(C)(O)C(OC(=O)N2CCN(C3CCCCCC3)CC2)/C=C/C1C (stereo not drawn) [E7107, (8E,12E,14E)-7-((4-Cycloheptylpiperazin-1-yl)carbonyl)oxy-3,6,16,21-tetrahydroxy-6,10,12,16,20-pentamethyl-18,19-epoxytricosa-8,12,14-trien-11-olide]
2 h
  AHSA2 mRNA expression level (226665_at): 0.20
  ATXN1 mRNA expression level (242230_at): 0.25
  C13orf31 mRNA expression level (228937_at): 0.04
  C15orf48 mRNA expression level (223484_at): 0.02
  CCRL2//LOC642312 mRNA expression level (211434_s_at): 0.22
  CLEC5A mRNA expression level (219890_at): 0.08
  CSF2RA mRNA expression level (210340_s_at): 0.08
  CTSL1 mRNA expression level (202087_s_at): 0.20
  DHRS9 mRNA expression level (223952_x_at): 0.18
  DOK3 mRNA expression level (223553_s_at): 0.30
  FPRL2 mRNA expression level (230422_at): 0.05
  GNA15 mRNA expression level (205349_at): 0.11
  GPR84 mRNA expression level (223767_at): 0.19
  GTF2H1 mRNA expression level (202451_at): 0.07
  HNRPA2B1 mRNA expression level (225107_at): 0.07
  HPSE mRNA expression level (222881_at): 0.13
  IQCG mRNA expression level (235347_at): 0.08
  LOC51315 mRNA expression level (233329_s_at): 0.11
  MS4A7 mRNA expression level (224358_s_at): 0.22
  NLRP12 mRNA expression level (1554952_s_at): 0.24
  NRIP3 mRNA expression level (219557_s_at): 0.11
  NSMCE4A mRNA expression level (228506_at): 0.19
  OLR1 mRNA expression level (210004_at): 0.01
  RAPH1 mRNA expression level (225188_at): 0.05
  RBBP6 mRNA expression level (212781_at): 0.12
  SLC25A19 mRNA expression level (223222_at): 0.17
  SLC43A2 mRNA expression level (228918_at): 0.17
  TNFAIP6 mRNA expression level (206026_s_at): 0.07
  TNS1 mRNA expression level (221748_s_at): 0.09
  TRAPPC4 mRNA expression level (217959_s_at): 0.08
  Transcribed locus mRNA expression level (230098_at): 0.08
  WSB1 mRNA expression level (201294_s_at): 0.29
  ZCCHC6 mRNA expression level (220933_s_at): 0.14
4 h
  AHSA2 mRNA expression level (226665_at): 0.23
  ATXN1 mRNA expression level (242230_at): 0.13
  C13orf31 mRNA expression level (228937_at): 0.06
  C15orf48 mRNA expression level (223484_at): 0.01
  CCRL2//LOC642312 mRNA expression level (211434_s_at): 0.29
  CLEC5A mRNA expression level (219890_at): 0.01
  CSF2RA mRNA expression level (210340_s_at): 0.10
  CTSL1 mRNA expression level (202087_s_at): 0.13
  DHRS9 mRNA expression level (223952_x_at): 0.12
  DOK3 mRNA expression level (223553_s_at): 0.35
  FPRL2 mRNA expression level (230422_at): 0.02
  GNA15 mRNA expression level (205349_at): 0.15
  GPR84 mRNA expression level (223767_at): 0.38
  GTF2H1 mRNA expression level (202451_at): 0.02
  HNRPA2B1 mRNA expression level (225107_at): 0.10
  HPSE mRNA expression level (222881_at): 0.11
  IQCG mRNA expression level (235347_at): 0.05
  LOC51315 mRNA expression level (233329_s_at): 0.06
  MS4A7 mRNA expression level (224358_s_at): 0.03
  NLRP12 mRNA expression level (1554952_s_at): 0.20
  NRIP3 mRNA expression level (219557_s_at): 0.24
  NSMCE4A mRNA expression level (228506_at): 0.19
  OLR1 mRNA expression level (210004_at): 0.00
  RAPH1 mRNA expression level (225188_at): 0.10
  RBBP6 mRNA expression level (212781_at): 0.17
  SLC25A19 mRNA expression level (223222_at): 0.18
  SLC43A2 mRNA expression level (228918_at): 0.08
  TNFAIP6 mRNA expression level (206026_s_at): 0.02
  TNS1 mRNA expression level (221748_s_at): 0.06
  TRAPPC4 mRNA expression level (217959_s_at): 0.04
  Transcribed locus mRNA expression level (230098_at): 0.08
  WSB1 mRNA expression level (201294_s_at): 0.25
  ZCCHC6 mRNA expression level (220933_s_at): 0.06
